B1: tBroccoli: Broccoli with tRNA scaffold, SEQ ID NO: 38 (nucleic acid)
chain: GCCCGGATAGCTCAGTCGGTAGAGCAGCGGAGACGGTCGGGTCCAGATATTCGTATCTGTCGAGTAGAGTGTGGGCTCCGCGGGTCCAGGGTTCAAGTCCCTGTTCGGGCGCCA
modifications: chemistry not given here

Tests used:
[1] = Magnesium dependence of aptamer fluorescence; assay type: physicochemical; details: MgCl2 titration
Method: To measure magnesium dependence 1 μM RNA was incubated with 10 μM 1T in 40 mM HEPES pH 7.4, 100 mM KCl buffer with different concentrations of MgCl2 and then fluorescence emission was measured on a plate reader.

[2] = Folding measurements with DFHBI-1T; assay type: physicochemical; details: for percent folded: in vitro folding assay
Method: Briefly, fluorescence intensity of two solutions were compared: the one having excess of the dye and limiting amount of RNA and the other with excess of RNA and limiting amount of the dye. 1 μM of 1T (or RNA) and 20 μM of RNA (or 1T) was used. Signal from the first condition (limiting RNA) was divided by the signal from the second condition (limiting dye) to determine the fraction folded. To measure folding in a context of different flanking sequences RNA was generated from separate dsDNA fragments. These fragments were PCR amplified to have β-actin, 5S rRNA and 7SK RNA sequences on either or both sides of Broccoli. The folding assay then proceeded as described above.
(§1) To measure the fluorescence of aptamer-fluorophore complexes, an approach that overcomes potential confounding effects of incomplete RNA folding was used. The fluorescence of RNA-fluorophore complexes can be measured in either of two ways: using “excess RNA” or “excess fluorophore” (Ponchon et al., “Recombinant RNA Technology: the tRNA Scaffold,” Nat. Methods 4(7): 571-6 (2007), which is hereby incorporated by reference in its entirety). In an “excess RNA” experiment enough RNA was added to ensure that all the fluorophore (e.g. 1 μM) is bound to the RNA even if a sizeable portion of the RNA is unfolded. As a result, one can be confident that a 1 μM RNA-fluorophore complex is present, and one can therefore calculate the “molar brightness,” the fluorescence of a specific concentration of RNA-fluorophore complex independent of RNA folding. In the case of excess fluorophore experimental conditions were reversed and 1 μM of RNA was used with a vast excess of the fluorophore. In this case, the amount of RNA-fluorophore complex is highly dependent on the amount of RNA that is folded.

[3] = test system: E. coli; experiment: Fluorescence measurements of E. coli (colonies, suspensions) expressing aptamers with DFHBI-1T; assay type: cell-based, Escherichia coli
Method: Fluorescence Measurements of E. coli: Fluorescence measurements of E. coli were done in two general ways. To assess fluorescence brightness of bacterial colonies on a plate Acella or LMG194 strains cells were transferred to a new LB/agar dish with respective antibiotic and allowed to grow overnight at 37° C. Typically four to six colonies for the same aptamer were grown on the same plate to provide statistical data. These plates already contained 40 μM DFHBI-1T (or DFHBI) and 0.2% arabinose (in case of LMG194 strain). When Acella strain was used, 1 mM IPTG was added the next morning and incubation was continued for four to six hours more at 37° C. Bacterial colonies were then imaged under ChemiDoc MP imager as described above and images were processed in ImageJ program.
To measure fluorescence of bacterial cell suspensions BL21 Star (DE3) (Life Technologies) strain and pET28c-based expression plasmids were used. This combination provided the strongest signal. Fresh colony was inoculated into LB media with kanamycin and allowed to grow overnight at 37° C. to OD600 0.4. The cells were then induced with addition of 1 mM IPTG for 2-4 h at 37° C. After induction, cells were normalized for cell density and incubated with 400 μM DFHBI-1T. Cells were then measured for total fluorescence using a Genios Pro plate reader at 465 nm excitation and 535 nm emission. All values were normalized for slightly different excitation and emission spectra of Spinach2 and Broccoli.

[4] = test system: HEK293T cells; experiment: Flow cytometry of HEK293T cells expressing 5S rRNA-aptamer fusions with DFHBI-1T; assay type: cell-based; details: flow cytometry
Method: FIG. 24 illustrates the quantification of the flow cytometry analysis of aptamers expression in mammalian cells. To compare specific aptamers' brightness in mammalian cells, HEK293T cells were transfected with two plasmids: one expressing aptamer (with or without tRNA) fused to 5S rRNA and another expressing mCherry fluorescent protein. Cells were then treated with 40 μM DFHBI-1T and analyzed on FACSAria III instrument in two channels: green (ex=488 nm; em=525±50 nm) and red (ex=561 nm and em=610±20). For quantification, mean fluorescent signal of the non-negative population was calculated and then mean fluorescent signal of the negative population was subtracted from it to assess specific, not background fluorescent signal. Finally, this number was multiplied by the percentage of the non-negative population to provide the total fluorescent signal of the non-negative population. These numbers are plotted on the bar graph above. Where indicated, cells were also pre-treated with 5 mM MgSO4. Error bar indicates robust SD calculated by FlowJo program, used for data analysis.
Imaging 5S-tBroccoli and 5S-t-tdBroccoli: Plasmids were transfected into HEK293T cell using FuGENE HD reagent (Promega) following manufacture's protocol. Cell imaging was carried out as previously described for 5S-Spinach (Paige et al., “RNA Mimics of Green Fluorescent Protein,” Science 333(6042): 642-6 (2011), which is hereby incorporated by reference in its entirety) with DFHBI-1T instead of DFHBI. […]
Flow cytometry was used to quantify average brightness of tRNA. Transfected cells were analyzed in two channels: green (ex=488 nm; em=525±50 nm) and red (ex=561 nm; em=610±20). […] As evidenced from FIG. 14A, 5S-tBroccoli and 5S-tdBroccoli are clearly detectable in the green fluorescence channel and this specific signal appears only upon cells treatment with DFHBI-1T (FIG. 23).

[5] = In vitro fluorescence activation of DFHBI-1T by 29-1 and truncation mutants; assay type: biochemical; details: excess RNA conditions
Description: In Vitro Characterization of Aptamers: dsDNA from the brightest bacterial cells in a library was PCR amplified from eluted plasmids. Truncation, deletion and point mutation mutants were generated from dsDNAs PCR amplified based on respective ssDNA templates (Protein and Nucleic Acid Facility, Stanford University Medical Center). Primers were designed so the PCR product contained T7 promoter sequence. When indicated, dsDNA or ssDNA also contained tRNA scaffold part. PCR products were then purified with PCR purification columns (Qiagen) and in vitro transcribed utilizing AmpliScribe T7-Flash Transcription Kit (Epicenter). RNA was purified using Bio-Spin columns (Bio-Rad), and quantified using both absorbance values and the Quant-iT RiboGreen RNA Assay Kit (Life Technologies).
All in vitro RNA properties were measured in 40 mM HEPES pH 7.4, 100 mM KCl, 1 mM MgCl2 buffer unless specified separately. All values presented are averaging of at least three independent experiments, error bars are standard deviations.
as §1

Molecule	magnesium concentration giving maximal fluorescence [1] [µM]	folding relative to 29-1 ([2]; in vitro) [%]	fluorescence of aptamer-expressing E. coli cells ([3]; tRNA fusions, suspension/plate reader, DFHBI-1T)	detection in HEK293T cells of 5S fusions without tRNA scaffold [4]	ability to induce DFHBI-1T fluorescence [5]	ability to induce DFHBI-1T fluorescence ([5]; listed as T2)	percent folded [2] [%]	colony fluorescence compared to 29-1 ([3]; E. coli colonies on LB-DFHBI-1T agar, tRNA scaffold)	increase of E. coli fluorescence with 20 mM MgCl2 ([3]; LB media with versus without 20 mM MgCl2, after 1 hr) [%]
Broccoli: 49 nt RNA aptamer, SEQ ID NO: 75; 29-1-3-1 designated Broccoli (GAGACGGUCGGGUCCAGAUAUUCGUAUCUGUCGAGUAGAGUGUGGGCUC; further chemistry not given here)	~300	80	more than twice as fluorescent as Spinach2-expressing cells	can be detected in cells					
29-1-T2: 56-nucleotide truncation of 29-1, SEQ ID NO: 4 (GAGACGGUCGGGUCCAGCACAAAAAUGUUGCUGUUGAGUAGAGUGUGGGCUC; listed as RNA, chemistry not given here)					retained the ability to induce DFHBI-1T fluorescence	able to induce fluorescence of DFHBI-1T	45	significantly less bright than colonies expressing 29-1	
B1							~60		36
